# Test results reported in patent publication US8354402B2, “Polyarylcarboxamides useful as lipid lowering agents” (Janssen Pharmaceutica N.V., priority 2000, dated 2013).
# Experiments:
# MTP = MTP (Homo sapiens, UniProt P55157); experiment: MTP assay (triglyceride transfer from donor to acceptor vesicles); format: biochemical; details: MTP activity, 37° C.
# Description: MTP activity was measured using an assay similar to one described by J. R. Wetterau and D. B. Zilversmit in Chemistry and Physics of Lipids (1985) 38, 205-222. In order to prepare the donor and acceptor vesicles, the appropriate lipids in chloroform were put into a glass test tube and dried under a stream of nitrogen. A buffer containing 15 mM Tris-HCl (pH 7.5), 1 mM ethylenediamine tetra-acetic acid, 40 mM NaCl, 0.02% NaN3 (assay buffer) was added to the dried lipid. The mixture was vortexed briefly and the lipids were then allowed to hydrate for 20 minutes on ice. Vesicles were then prepared by bath sonication (using a Branson 2200 device) at room temperature for at most 15 minutes. Butylated hydroxytoluene was included in all vesicle preparations at a concentration of 0.1%. The lipid transfer assay mixture contained donor vesicles (40 nmole phosphatidylcholine, 7.5 mole % cardiolipin and 0.25 mole % glycerol tri[1-^14C]-oleate), acceptor vesicles (240 nmol phosphatidylcholine) and 5 mg bovine serum albumin in a total volume of 675 μl in a 1.5 ml microcentrifuge tube. Test compounds were added dissolved in dimethylsulfoxide (0.13% final concentration). After 5 minutes of pre-incubation at 37° C., the reaction was started by the addition of MTP in 100 μl of a dialysis buffer. The reaction was stopped by the addition of 400 μl […] (DEAE)-52 cellulose (Sephadex) pre-equilibrated in 15 mM Tris-HCl (pH 7.5), 1 mM ethylenediamine tetra-acetic acid and 0.02% NaN3 (1:1 volume/volume). The mixture was agitated for 4 minutes and centrifuged for 2 minutes at maximum speed in an Eppendorf centrifuge (4° C.) to pellet the DEAE-52-bound donor vesicles. An aliquot of the supernatant containing the acceptor liposomes was counted and the [^14C]-counts were used to calculate the percent triglyceride transfer from donor to acceptor vesicles.
# Resulting IC50 values are enumerated in Table C.2 for some of the above-referred compounds.
# [1] = test system: ApoB secretion, HepG2 cells; experiment: Quantification of the secretion of ApoB (HepG2 cells, immunoprecipitation, scintillation counting); format: cell-based; details: 24 hours of incubation; for IC50: Homo sapiens, HepG2, 24 h
# Procedure, shortened: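 HepG2 cells in MEM Rega 3 with 10% FCS were treated at 70% confluency with compound (DMSO 0.4% final) for 24 h. Medium ApoB was immunoprecipitated with sheep anti-apoB then rabbit anti-sheep antibody (24 h each, 8° C), and pellet radioactivity was counted by liquid scintillation to give IC50.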
# Sequence of MTP (P55157 19-894, species assumed): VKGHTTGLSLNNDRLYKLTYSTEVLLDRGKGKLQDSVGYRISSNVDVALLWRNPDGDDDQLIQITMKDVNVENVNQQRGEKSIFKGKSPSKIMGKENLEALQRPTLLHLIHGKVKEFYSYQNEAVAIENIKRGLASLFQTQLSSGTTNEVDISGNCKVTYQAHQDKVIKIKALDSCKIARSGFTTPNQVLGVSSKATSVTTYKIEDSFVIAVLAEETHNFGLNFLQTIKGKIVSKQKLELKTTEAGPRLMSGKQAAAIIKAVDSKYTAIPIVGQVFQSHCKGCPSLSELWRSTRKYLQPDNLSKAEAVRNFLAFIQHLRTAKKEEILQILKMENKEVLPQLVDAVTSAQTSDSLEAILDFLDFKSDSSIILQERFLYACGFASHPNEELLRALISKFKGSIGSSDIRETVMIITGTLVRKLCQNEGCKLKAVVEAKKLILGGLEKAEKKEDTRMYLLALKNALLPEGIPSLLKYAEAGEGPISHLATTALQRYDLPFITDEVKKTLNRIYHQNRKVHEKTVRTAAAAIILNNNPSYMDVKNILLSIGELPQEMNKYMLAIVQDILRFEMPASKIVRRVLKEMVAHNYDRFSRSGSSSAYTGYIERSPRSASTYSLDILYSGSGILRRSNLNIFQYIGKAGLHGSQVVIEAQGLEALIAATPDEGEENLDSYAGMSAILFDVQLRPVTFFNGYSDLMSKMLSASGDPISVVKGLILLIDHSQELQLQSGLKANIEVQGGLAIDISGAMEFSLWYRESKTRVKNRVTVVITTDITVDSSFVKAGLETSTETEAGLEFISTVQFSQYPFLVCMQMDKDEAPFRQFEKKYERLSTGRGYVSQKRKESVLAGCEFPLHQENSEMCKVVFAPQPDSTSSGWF
# Sequence of MTP (P07237 18-508 partner, species assumed): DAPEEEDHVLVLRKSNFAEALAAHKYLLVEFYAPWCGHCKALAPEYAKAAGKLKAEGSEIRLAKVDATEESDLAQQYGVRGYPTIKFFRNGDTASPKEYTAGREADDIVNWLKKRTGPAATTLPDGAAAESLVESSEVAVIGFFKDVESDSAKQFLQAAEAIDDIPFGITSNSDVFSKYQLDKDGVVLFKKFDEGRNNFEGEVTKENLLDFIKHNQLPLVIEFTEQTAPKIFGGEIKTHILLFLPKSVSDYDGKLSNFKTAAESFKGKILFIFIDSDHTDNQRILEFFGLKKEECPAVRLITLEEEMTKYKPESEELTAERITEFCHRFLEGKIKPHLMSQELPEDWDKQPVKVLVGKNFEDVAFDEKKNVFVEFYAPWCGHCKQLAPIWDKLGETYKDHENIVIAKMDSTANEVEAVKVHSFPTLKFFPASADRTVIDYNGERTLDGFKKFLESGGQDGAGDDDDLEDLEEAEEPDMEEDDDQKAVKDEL
Compound,IC50 (MTP),IC50 [1],further results
O=C(Nc1ccc(N2CCN(C(C(=O)NCc3ccccn3)c3ccccc3)CC2)cc1)c1ccccc1-c1ccc(C(F)(F)F)cc1 (stereo not shown) [Co. No. 60],8.28 nM,≤ 30 nM,
O=C(Nc1ccc(N2CCC(C(C(=O)NCc3ccccc3)c3ccccc3)CC2)cc1)c1ccccc1-c1ccc(C(F)(F)F)cc1 (stereo not shown) [Co. No. 11],7.31 nM,4.62 nM,
COC(=O)C(c1ccccc1)C1CCN(c2ccc(NC(=O)c3ccccc3-c3ccc(C(F)(F)F)cc3)cc2)CC1 (stereo not shown) [Co. No. 242],11.5 nM,,pIC50 ([1]; listed as 242): 8.133
"CCOC(=O)C(c1ccccc1)N1CCC(c2ccc(NC(=O)c3ccccc3-c3ccc(C(F)(F)F)cc3)cc2)CC1 (single isomer, unassigned) [Co. No. 264]",31.8 nM,,
CCCNC(=O)C(c1ccccc1)C1CCN(c2ccc(NC(=O)c3ccccc3CSc3ccccc3)cc2)CC1 (stereo not shown) [Co. No. 16],208 nM,83.8 nM,
O=C(Nc1ccc(N2CCC(C(C(=O)NCc3ccccc3)c3ccccc3)CC2)cc1)c1ccccc1CSc1ccccc1 (stereo not shown) [Co. No. 6],198 nM,108 nM,
C=CCNC(=O)C(c1ccccc1)N1CCN(c2ccc(NC(=O)c3ccccc3-c3ccc(C(F)(F)F)cc3)cc2)CC1 (stereo not shown) [Co. No. 57],6.87 nM,7.57 nM,
COC(=O)C(c1ccccc1)C1CCN(c2ccc(NC(=O)c3ccccc3-c3ccc(C(F)(F)F)cc3)cc2)CC1 (stereo not shown) [Co. No. 241],10.4 nM,,pIC50 ([1]; listed as 241): 7.578
CCOC(=O)C(c1ccccc1)N1CCC(c2ccc(NC(=O)c3ccccc3-c3ccc(C(F)(F)F)cc3)cc2)CC1 (stereo not shown) [Co. No. 222],8.41 nM,19.2 nM,
O=C(Nc1ccc(N2CCC(C(C(=O)NCc3ccccc3)c3ccccc3)CC2)cc1)c1ccccc1COc1ccccc1 (stereo not shown) [Co. No. 7],363 nM,261 nM,
O=C(Nc1ccc(N2CCC(C(C(=O)NCc3ccccc3)c3ccccc3)CC2)cc1)c1ccccc1-c1ccccc1 (stereo not shown) [Co. No. 3],18.4 nM,25.6 nM,
C=CCNC(=O)C(c1ccccc1)N1CC=C(c2ccc(NC(=O)c3ccccc3-c3ccccc3)cc2)CC1 (stereo not shown) [Co. No. 167],,< 30 nM,
C=CCNC(=O)C(c1ccccc1)N1CC=C(c2ccc(NC(=O)c3ccccc3-c3ccc(C(F)(F)F)cc3)cc2)CC1 (stereo not shown) [Co. No. 165],,33 nM,
O=C(Nc1ccc(N2CCC(C(C(=O)Oc3ccccc3)c3ccccc3)CC2)cc1)c1ccccc1-c1ccccc1 (stereo not shown) [Co. No. 178],,34.3 nM,
C=CCOC(=O)C(c1ccccc1)N1CCN(c2ccc(NC(=O)c3ccccc3-c3ccccc3)cc2)CC1 (stereo not shown) [Co. No. 146],,341 nM,

# More lines, main results first:
IC50 (MTP),IC50 [1],Compound,further results
2.08 nM,,COC(=O)C(c1ccccc1)C1CCN(c2ccc(NC(=O)c3ccccc3-c3ccc(C(C)(C)C)cc3)cc2)CC1 (stereo not shown) [Co. No. 203],pIC50 ([1]; listed as 203): 8.333
4.63 nM,,CCNC(=O)C(c1ccccc1)N1CCN(c2ccc(NC(=O)c3cccc(C)c3-c3ccc(C(F)(F)F)cc3)cc2)CC1 (stereo not shown) [Co. No. 199],
3.64 nM,,"COC(=O)C(c1ccccc1)N1CCC(c2ccc(NC(=O)c3ccccc3-c3ccc(C(F)(F)F)cc3)cc2)CC1 (single isomer, unassigned) [Co. No. 230]",pIC50 [1]: 8.31
1.98 nM,,COC(=O)C(c1ccccc1)N1CCN(c2ccc(NC(=O)c3ccccc3-c3ccc(C(F)(F)F)cc3)cc2)CC1 (stereo not shown) [Co. No. 239],pIC50 ([1]; listed as 239): 7.855
3.2 nM,2.05 nM,CCNC(=O)C(c1ccccc1)C1CCN(c2ccc(NC(=O)c3ccccc3-c3ccc(C(C)(C)C)cc3)cc2)CC1 (stereo not shown) [Co. No. 87],
4.53 nM,,"COC(=O)C(c1ccccc1)N1CCN(c2ccc(NC(=O)c3ccccc3-c3ccc(C(F)(F)F)cc3)cc2)CC1 (stereo not drawn) [Co. No. 40, methyl α-phenyl-4-[4-[[[4′-(trifluoromethyl)[1,1′-biphenyl]-2-yl]carbonyl]amino]phenyl]-1-piperazineacetate]",pIC50 ([1]; listed as 40): 7.586
5.62 nM,,"CCOC(=O)C(c1ccccc1)N1CCC(c2ccc(NC(=O)c3ccccc3-c3ccc(C(F)(F)F)cc3)cc2)CC1 (single isomer, unassigned) [Co. No. 265]",
